Reference: patent US10556905B2, “Processes for preparing a diazabicyclooctane compound” (priority 2012, dated 2020)
Where two headings read alike, the source gives them in different places.

Experiments:
[1] = target: T1, AmpC (Pseudomonas aeruginosa, UniProt P24735); test: biochemical
T1 construct: AmpC, TEM-1, KPC-2 or OXA-2 domain excluding signal peptide was amplified with PCR; made in house; host or cells: Escherichia coli BL21 (DE3), pET-28b(+)

[2] = target: T2, OXA-2 (Escherichia coli, UniProt P0A1V9); test: biochemical; parameters: species or system P. aeruginosa
T2 construct: AmpC, TEM-1, KPC-2 or OXA-2 domain excluding signal peptide was amplified with PCR; made in house; host or cells: Escherichia coli BL21 (DE3), pET-28b(+)
T2 sequence (P0A1V9 22-275): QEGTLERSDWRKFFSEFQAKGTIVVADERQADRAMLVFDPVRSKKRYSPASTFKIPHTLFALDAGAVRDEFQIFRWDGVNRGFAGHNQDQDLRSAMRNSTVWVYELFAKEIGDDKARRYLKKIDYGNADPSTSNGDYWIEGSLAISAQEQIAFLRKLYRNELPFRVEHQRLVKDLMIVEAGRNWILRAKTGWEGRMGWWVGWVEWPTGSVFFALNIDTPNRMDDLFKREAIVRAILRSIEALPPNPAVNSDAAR

[3] = target: T3, KPC-2 (Klebsiella pneumoniae, UniProt Q9F663); test: β-Lactamase inhibitory activity (nitrocefin hydrolysis), KPC-2; assay type: biochemical; details: KPC-2 0.5 nM, 100 μM nitrocefin, pre-incubation 30° C. 10 minutes
T3 construct: AmpC, TEM-1, KPC-2 or OXA-2 domain excluding signal peptide was amplified with PCR; made in house; host or cells: Escherichia coli BL21 (DE3), pET-28b(+)
T3 sequence (Q9F663 25-293, looked up): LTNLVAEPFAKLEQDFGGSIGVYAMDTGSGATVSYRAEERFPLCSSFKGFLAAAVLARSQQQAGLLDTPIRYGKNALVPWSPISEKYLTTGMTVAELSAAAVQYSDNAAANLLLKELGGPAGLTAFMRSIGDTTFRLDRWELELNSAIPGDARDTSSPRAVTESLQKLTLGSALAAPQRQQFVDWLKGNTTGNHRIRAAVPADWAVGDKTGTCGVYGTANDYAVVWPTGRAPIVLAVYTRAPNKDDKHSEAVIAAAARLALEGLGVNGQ

[4] = target: T4, TEM-1 (Escherichia coli, UniProt P62593); test: β-Lactamase inhibitory activity (nitrocefin hydrolysis), TEM-1; assay type: biochemical; details: TEM-1 0.1 nM, 100 μM nitrocefin, pre-incubation 30° C. 10 minutes
T4 construct: AmpC, TEM-1, KPC-2 or OXA-2 domain excluding signal peptide was amplified with PCR; made in house; host or cells: Escherichia coli BL21 (DE3), pET-28b(+)
T4 sequence (P62593 24-286 limits assumed): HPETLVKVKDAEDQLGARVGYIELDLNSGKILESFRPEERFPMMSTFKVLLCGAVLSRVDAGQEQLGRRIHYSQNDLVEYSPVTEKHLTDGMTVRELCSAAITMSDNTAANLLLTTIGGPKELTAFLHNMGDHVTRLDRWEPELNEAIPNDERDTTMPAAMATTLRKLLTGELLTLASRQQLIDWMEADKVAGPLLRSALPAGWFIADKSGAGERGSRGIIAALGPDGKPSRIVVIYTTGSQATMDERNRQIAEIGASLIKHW
Procedure: Using Pseudomonas aeruginosa ATCCBAA-47 genome, plasmid pBR322, Klebsiella pneumoniae ATCCBAA-1705, and P. aeruginosa MSC17696 as a template, each DNA for encoding β-lactamase, AmpC, TEM-1, KPC-2 or OXA-2 domain excluding signal peptide was amplified with PCR. Each of the PCR product was incorporated into pET-28b(+)vector (Merck), introduced into Escherichia coli BL21 (DE3) (Merck), and, under induction of 1 mM isopropyl-β-D-(−)-thiogalactopyranoside (Nacalai Tesque), cultured overnight at 20° C. to express AmpC, TEM-1, KPC-2, and OXA-2. After the bacterial cell was collected, AmpC was purified from the cell extract obtained by ultrasonic treatment, using CM Sepharose Fast Flow (GE Healthcare) and HiTrap Heparin HP (GE Healthcare) at 4° C. TEM-1 was purified with HiTrap SPHP (GE Healthcare), HiTrap Q (GE Healthcare) and Mono Q (GE Healthcare), and KPC-2 was purified with HiTrap SPHP. OXA-2 was purified with HiTrap SPHP and HiTrap Heparin HP.
For the measurement of β-lactamase inhibitory activity, 100 μM (final concentration) nitrocefin (Oxoid) was used as a substrate, and 2.5% DMSO, 10 μg/mL bovine serum derived albumin (Sigma-Aldrich) and 50 mM phosphate buffer at pH 7.0 were used as a reaction solution. […] Nitrocefin was added to each well to be mixed therein, followed by incubation at 30° C. for 20 minutes, and Multiscan Ascent (Thermo Fisher Scientific) was used to measure 492 nm wavelength, thereby measuring nitrocefin hydrolytic activity of β-Lactamase, to determine enzyme inhibitory activity. […] As the inhibitory activity strength, less than 0.1 μM, less than 1 μM, less than 3 μM, less than 10 μM, and 10 μM or more were shown with A, B, C, D, and E respectively.

[5] = OXA-2 2 nM, 100 μM nitrocefin, pre-incubation 30° C. 10 minutes, read-out: β-Lactamase inhibitory activity OXA-2 (IC50)

T1 sequence (P24735 27-397): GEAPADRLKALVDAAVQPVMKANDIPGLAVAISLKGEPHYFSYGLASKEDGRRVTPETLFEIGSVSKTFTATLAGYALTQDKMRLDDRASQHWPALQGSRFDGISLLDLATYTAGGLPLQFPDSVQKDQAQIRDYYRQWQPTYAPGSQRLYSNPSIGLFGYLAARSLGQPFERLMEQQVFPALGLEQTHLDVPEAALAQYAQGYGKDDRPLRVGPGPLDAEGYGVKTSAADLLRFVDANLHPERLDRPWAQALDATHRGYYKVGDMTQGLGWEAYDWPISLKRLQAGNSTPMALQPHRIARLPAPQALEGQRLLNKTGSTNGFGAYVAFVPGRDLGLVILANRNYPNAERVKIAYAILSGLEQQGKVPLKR

Row | Compound | IC50 [1] [nM] | IC50 [2] [nM] | IC50 [3] [nM] | IC50 [4] [nM] | IC50 [2, 5] [nM]
1 | O=C1CC[C@@H](C(=O)NNC(=O)[C@@H]2CC[C@@H]3CN2C(=O)N3OS(=O)(=O)O)N1 [Example 41, Sodium (2S,5R)-7-oxo-N′-{[(2S)-5-oxopyrrolidin-2-yl]carbonyl}-6-(sulfooxy)-1,6-diazabicyclo[3.2.1]octane-2-carbohydrazide] | 100 to 1000 | 3000 to 10000 | 1000 to 3000 | 100 to 1000 | 
2 | O=C(NN1CCOCC1)[C@@H]1CC[C@@H]2CN1C(=O)N2OS(=O)(=O)O (racemic) [Example 55, Sodium (2SR,5RS)—N-(morpholin-4-yl)-7-oxo-6-(sulfooxy)-1,6-diazabicyclo[3.2.1]octane-2-carboxamide] | 100 to 1000 | 3000 to 10000 | 1000 to 3000 | 100 to 1000 | 
3 | O=C(NOCC1CNC1)[C@@H]1CC[C@@H]2CN1C(=O)N2OS(=O)(=O)O [Example 82, (2S,5R)—N-(Azetidin-3-ylmethoxy)-7-oxo-6-(sulfooxy)-1,6-diazabicyclo[3.2.1]octane-2-carboxamide] | < 100 |  | 100 to 1000 | < 100 | 100 to 1000
4 | O=C(NOC[C@@H]1CCCN1)[C@@H]1CC[C@@H]2CN1C(=O)N2OS(=O)(=O)O [Example 76, (2S,5R)-7-Oxo-N-[(2S)-pyrrolidin-2-ylmethoxy]-6-(sulfooxy)-1,6-diazabicyclo[3.2.1]octane-2-carboxamide] | 100 to 1000 |  | 100 to 1000 | < 100 | 100 to 1000
5 | CCN(CC)C(=O)NNC(=O)[C@@H]1CC[C@@H]2CN1C(=O)N2OS(=O)(=O)O [Example 48, Sodium N,N-diethyl2-{[(2S,5R)-7-oxo-6-(sulfooxy)-1,6-diazabicyclo[3.2.1]oct-2-yl]carbonyl}hydrazinecarboxamide] | < 100 | 3000 to 10000 | 100 to 1000 | 100 to 1000 | 
6 | O=C(NOCC(=O)N1CCNCC1)[C@@H]1CC[C@@H]2CN1C(=O)N2OS(=O)(=O)O [Example 90, (2S,5R)-7-Oxo-N-[2-oxo-2-(piperazin-1-yl)ethoxy]-6-(sulfooxy)-1,6-diazabicyclo[3.2.1]octane-2-carboxamide] | < 100 |  | 100 to 1000 | < 100 | 100 to 1000
7 | O=C(NNC(=O)[C@@H]1CC[C@@H]2CN1C(=O)N2OS(=O)(=O)O)Nc1ccccc1 (racemic) [Example 49, Sodium 2-{[(2SR,5RS)-7-oxo-6-(sulfooxy)-1,6-diazabicyclo[3.2.1]oct-2-yl]carbonyl}-N-phenylhydrazinecarboxamide] | 100 to 1000 | 3000 to 10000 | 100 to 1000 | < 100 | 
8 | O=C(NOCC(=O)N1CCCNCC1)[C@@H]1CC[C@@H]2CN1C(=O)N2OS(=O)(=O)O [Example 92, (2S,5R)—N-[2-(1,4-Diazepan-1-yl)-2-oxoethoxy]-7-oxo-6-(sulfooxy)-1,6-diazabicyclo[3.2.1]octane-2-carboxamide] | < 100 |  | 100 to 1000 | < 100 | 100 to 1000
9 | NCCCONC(=O)[C@@H]1CC[C@@H]2CN1C(=O)N2OS(=O)(=O)O [Example 69, (2S,5R)—N-(3-Aminopropoxy)-7-oxo-6-(sulfooxy)-1,6-diazabicyclo[3.2.1]octane-2-carboxamide] | 100 to 1000 |  | 1000 to 3000 | < 100 | 100 to 1000
10 | O=C(NN1CCCC1=O)[C@@H]1CC[C@@H]2CN1C(=O)N2OS(=O)(=O)O (racemic) [Example 33, Sodium (2SR,5RS)-7-oxo-N-(2-oxopyrrolidin-1-yl)-6-(sulfooxy)-1,6-diazabicyclo[3.2.1]octane-2-carboxamide] | 100 to 1000 | 3000 to 10000 | 100 to 1000 | < 100 | 
11 | O=C(NOCCN1CCOCC1)[C@@H]1CC[C@@H]2CN1C(=O)N2OS(=O)(=O)O [Example 72, Sodium (2S,5R)—N-[2-(morpholin-4-yl)ethoxy]-7-oxo-6-(sulfooxy)-1,6-diazabicyclo[3.2.1]octane-2-carboxamide] | < 100 | 100 to 1000 | 100 to 1000 | < 100 | 
12 | O=C(NOC1CNC1)[C@@H]1CC[C@@H]2CN1C(=O)N2OS(=O)(=O)O [Example 79, (2S,5R)—N-(Azetidin-3-yloxy)-7-oxo-6-(sulfooxy)-1,6-diazabicyclo[3.2.1]octane-2-carboxamide] | 100 to 1000 |  | 1000 to 3000 | < 100 | 1000 to 3000
13 | NCCC(=O)NNC(=O)[C@@H]1CC[C@@H]2CN1C(=O)N2OS(=O)(=O)O [Example 27, (2S,5R)—N′-(3-Aminopropanoyl)-7-oxo-6-(sulfooxy)-1,6-diazabicyclo[3.2.1]octane-2-carbohydrazide] | 100 to 1000 |  | 1000 to 3000 | < 100 | 1000 to 3000
14 | COCCONC(=O)[C@@H]1CC[C@@H]2CN1C(=O)N2OS(=O)(=O)O [Example 96, Sodium (2S,5R)—N-(2-methoxyethoxy)-7-oxo-6-(sulfooxy)-1,6-diazabicyclo[3.2.1]octane-2-carboxamide] | < 100 | 1000 to 3000 | 100 to 1000 | < 100 | 
15 | CONC(=O)[C@@H]1CC[C@@H]2CN1C(=O)N2OS(=O)(=O)O [Example 56, Sodium (2S,5R)—N-methoxy-7-oxo-6-(sulfooxy)-1,6-diazabicyclo[3.2.1]octane-2-carboxamide] | 100 to 1000 | 1000 to 3000 | 100 to 1000 | < 100 | 
16 | O=C(NNC(=O)[C@@H]1CC[C@@H]2CN1C(=O)N2OS(=O)(=O)O)[C@@H]1CCCCN1 [Example 36, (2S,5R)-7-Oxo-N′-[(2S)-piperidine-2-ylcarbonyl]-6-(sulfooxy)-1,6-diazabicyclo[3.2.1]octane-2-carbohydrazide] | 100 to 1000 |  | 1000 to 3000 | < 100 | 3000 to 10000
17 | COC(=O)NNC(=O)[C@@H]1CC[C@@H]2CN1C(=O)N2OS(=O)(=O)O [Example 51, Sodium methyl 2-{[(2S,5R)-7-oxo-6-(sulfooxy)-1,6-diazabicyclo[3.2.1]oct-2-yl]carbonyl}hydrazinecarboxylate] | 100 to 1000 | 1000 to 3000 | 100 to 1000 | < 100 | 
18 | O=C(NNC(=O)[C@@H]1CC[C@@H]2CN1C(=O)N2OS(=O)(=O)O)[C@H]1CCCN1 [Example 39, (2S,5R)-7-Oxo-N′-[(2R)-pyrrolidin-2-ylcarbonyl]-6-(sulfooxy)-1,6-diazabicyclo[3.2.1]octane-2-carbohydrazide] | < 100 |  | 1000 to 3000 | < 100 | 1000 to 3000
19 | O=C1CC[C@H](C(=O)NNC(=O)[C@@H]2CC[C@@H]3CN2C(=O)N3OS(=O)(=O)O)N1 [Example 42, Sodium (2S,5R)-7-oxo-N′-{[(2R)-5-oxopyrrolidin-2-yl]carbonyl}-6-(sulfooxy)-1,6-diazabicyclo[3.2.1]octane-2-carbohydrazide] | 100 to 1000 | 1000 to 3000 | 100 to 1000 | 100 to 1000 | 
20 | CC(=O)N(C)NC(=O)[C@@H]1CC[C@@H]2CN1C(=O)N2OS(=O)(=O)O (racemic) [Example 25, Sodium (2SR,5RS)—N′-acetyl-N′-methyl-7-oxo-6-(sulfooxy)-1,6-diazabicyclo[3.2.1]octane-2-carbohydrazide] | 100 to 1000 | > 10000 | < 100 | < 100 | 
